Assay results published in the supplement of paper PMC10307832.

Assays:
Assay in all cases: relative viability (nuclei count vs DMSO), 5 days (fraction); higher = more cells survive
Bortezomib + Dasatinib = compound: CC(C)C[C@H](NC(=O)[C@H](Cc1ccccc1)NC(=O)c1cnccn1)B(O)O [Bortezomib] + Cc1nc(Nc2ncc(C(=O)Nc3c(C)cccc3Cl)s2)cc(N2CCN(CCO)CC2)n1 [Dasatinib] (partner 0.075 µM)
In short: (§1)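 Nuclei were stained with Hoechst during a one-step fixation (final 0.05% Triton X-100, 1% formaldehyde, 1 ug/ml Hoechst) carried out 5 days after dosing, then counted on 4× images. The cells, lung cancer lines in 1536-well plates, had been dosed by pin tool the day after seeding with one drug alone or a fixed anchor-drug dose plus five library-drug doses (not always all listed) in √10 steps. Relative viability is the nuclei count in treated wells divided by that in vehicle wells, and each value is the median of duplicate plates.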

[1] = compound: CC1=CC(=NN1)NC2=CC(=NC(=N2)/C=C/C3=CC=CC=C3)N4CCN(CC4)C + COc1cc2c(Oc3ccc(NC(=O)C4(C(=O)Nc5ccc(F)cc5)CC4)cc3F)ccnc2cc1OCCCN1CCOCC1 [Foretinib] (partner 0.25 µM)
In short: as §1

[2] = compound: CC1=CC(=NN1)NC2=CC(=NC(=N2)/C=C/C3=CC=CC=C3)N4CCN(CC4)C + Cc1cc(Nc2cc(N3CCN(C)CC3)nc(Sc3ccc(NC(=O)C4CC4)cc3)n2)n[nH]1 [Tozasertib] (partner 0.1 µM)
In short: as §1

Obatoclax + Vorinostat = compound: COC1=CC(c2cc3ccccc3[nH]2)=N/C1=C\c1[nH]c(C)cc1C [Obatoclax] + O=C(CCCCCCC(=O)Nc1ccccc1)NO [Vorinostat] (partner 1 µM)
In short: as §1

NCI-H650 gave a relative viability (Bortezomib + Dasatinib; first compound 0.000632 µM) of 0.503, a relative viability (Bortezomib + Dasatinib; first compound 0.002 µM) of 0.428 and a relative viability (Bortezomib + Dasatinib; first compound 0.006325 µM) of 0.268. For the same cell line, the relative viability (Bortezomib + Dasatinib; first compound 0.02 µM) was 0.16, the relative viability ([1]; first compound 0.253 µM) was 1.14 and the relative viability ([1]; first compound 0.8 µM) was 1.01. It also gave a relative viability ([1]; first compound 2.53 µM) of 0.923, a relative viability ([1]; first compound 8 µM) of 0.255 and a relative viability ([2]; first compound 0.253 µM) of 0.822. For the same cell line, the relative viability ([2]; first compound 0.8 µM) was 0.603, the relative viability ([2]; first compound 2.53 µM) was 0.4 and the relative viability ([2]; first compound 8 µM) was 0.173. It also gave a relative viability (Obatoclax + Vorinostat; first compound 0.01 µM) of 0.439, a relative viability (Obatoclax + Vorinostat; first compound 0.03162 µM) of 0.444 and a relative viability (Obatoclax + Vorinostat; first compound 0.3162 µM) of 0.418. For the same cell line, the relative viability (Obatoclax + Vorinostat; first compound 1 µM) was 0.384.
